Test results taken from patent US10059667B2, “Antidiabetic compounds” (MERCK SHARP & DOHME CORP., priority 2014, dated 2018).

Tests used:
[1] = target: T1, Human GPR40 (Homo sapiens (Human), UniProt O14842); test: FLIPR assay, agonist-induced calcium mobilization in GPR40/CHO NFAT BLA cells; assay type: cell-based
Procedure: Human and mouse GPR40 stable cell-lines were generated in CHO cells stably expressing NFAT BLA (Beta-lactamase). A human GPR40 stable cell-line was generated in HEK cells stably expressing the aequorin expressing reporter. The expression plasmids were transfected using lipofectamine (Life Technologies) following manufacturer's instructions. Stable cell-lines were generated following drug selection.
FLIPR (Fluorimetric Imaging Plate Reader, Molecular Devices) assays were performed to measure agonist-induced calcium mobilization of the stable clones. For the FLIPR assay, one day before assay, GPR40/CHO NFAT BLA cells were seeded into black-wall-clear-bottom 384-well plates (Costar) at 1.4×10e4 cells/20 μL medium/well. The cells were incubated with 20 μl/well of the assay buffer (HBSS, 0.1% BSA, 20 mM HEPES, 2.5 mM probenecid, pH 7.4) containing 8 μM fluo-4, AM, 0.08% pluronic acid at room temperature for 100 minutes. Fluorescence output was measured using FLIPR. Compounds were dissolved in DMSO and diluted to desired concentrations with assay buffer. 13.3 μL/well of compound solution was added.

[2] = target: T1, Human GPR40; test: Inositol Phosphate Turnover (IP1) Assay 1, HEK cells stably expressing human GPR40, 3H-inositol SPA; assay type: cell-based; conditions: HEK cells stably expressing human GPR40, 96-well
In short: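 HEK cells stably expressing human GPR40, labelled 18 h with 3H-myo-inositol in inositol-free medium with 0.4% human or mouse albumin. LiCl added 20 min at 37 degrees, then compound 60 min at 37 degrees; formic acid lysates counted by YSi SPA beads for inositol phosphates.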

T1 sequence (O14842 whole entry): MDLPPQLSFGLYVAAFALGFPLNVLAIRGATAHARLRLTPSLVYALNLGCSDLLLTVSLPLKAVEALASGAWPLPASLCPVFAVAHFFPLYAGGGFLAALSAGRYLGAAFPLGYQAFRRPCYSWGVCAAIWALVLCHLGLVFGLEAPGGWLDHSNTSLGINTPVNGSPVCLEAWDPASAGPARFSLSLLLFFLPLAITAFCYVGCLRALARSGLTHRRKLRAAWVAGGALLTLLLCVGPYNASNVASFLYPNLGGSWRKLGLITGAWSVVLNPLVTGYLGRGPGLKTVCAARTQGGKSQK

| SMILES | EC50 [1] [nM] | EC50 [2] [nM] |
| --- | --- | --- |
| COc1cccc(C2CC2COc2cccc([C@@H](CC(=O)O)C3CC3)c2)c1 (single isomer, unassigned) [Example 62, (3 S)-3-cyclopropyl-3-(3-((2-(3-methoxyphenyl)cyclopropyl)methoxy)phenyl)propanoic acid] | 5.7 | 166 |
| COc1cccc(C2CC2COc2cccc([C@@H](CC(=O)O)C3CC3)c2)c1 (single isomer, unassigned) [Example 63, (3 S)-3-cyclopropyl-3-(3-((2-(3-methoxyphenyl)cyclopropyl)methoxy)phenyl)propanoic acid] | 15 | 348 |
| C[C@H](C(=O)O)[C@H](c1cccc(O[C@H]2CCCN(Cc3cc(C(F)(F)F)ccc3C(F)(F)F)C2)c1)C1CC1 [Example 1, (2S,3R)-3-(3-(((S)-1-(2,5-bis(trifluoromethyl)benzyl)piperidin-3-yl)oxy)phenyl)-3-cyclopropyl-2-methylpropanoic acid] | 1.9 | 89 |
| O=C(O)C[C@H](c1cccc(OCCC2CCN(Cc3cc(C(F)(F)F)ccc3C(F)(F)F)C2)c1)C1CC1 (stereo partly drawn) [Example 2, (3S)-3-(3-(2-(1-(2,5-Bis(trifluoromethyl)benzyl)pyrrolidin-3-yl)ethoxy)phenyl)-3-cyclopropylpropanoic acid] | 173 | 1830 |
| O=C(O)C[C@H](c1cccc(OCC2CCCCN2Cc2cc(C(F)(F)F)ccc2C(F)(F)F)c1)C1CC1 (stereo partly drawn) [Example 3, (3S)-3-(3-((1-(2,5-Bis(trifluoromethyl)benzyl)piperidin-2-yl)methoxy)phenyl)-3-cyclopropylpropanoic acid] | 126 | 8380 |
| C[C@H](C(=O)O)[C@H](c1cccc(OCC2CN(c3cc(C(F)(F)F)ccc3C(F)(F)F)C2)c1)C1CC1 [Example 4, (2S,3R)-3-(3-((1-(2,5-Bis(trifluoromethyl)phenyl)azetidin-3-yl)methoxy)phenyl)-3-cyclopropyl-2-methylpropanoic acid] | 77 | 485 |
| CC1(COc2cccc([C@@H](CC(=O)O)C3CC3)c2)CN(Cc2cc(C(F)(F)F)ccc2C(F)(F)F)C1 [Example 6, (S)-3-(3-((1-(2,5-Bis(trifluoromethyl)benzyl)-3-methylazetidin-3-yl)methoxy)phenyl)-3-cyclopropylpropanoic acid] | 95 | 2720 |
| C[C@H](C(=O)O)[C@H](c1cccc(O[C@@H]2CCCN(Cc3cc(C(F)(F)F)ccc3C(F)(F)F)C2)c1)C1CC1 [Example 7, (2S,3R)-3-(3-(((R)-1-(2,5-bis(trifluoromethyl)benzyl)piperidin-3-yl)oxy)phenyl)-3-cyclopropyl-2-methylpropanoic acid] | 2 | 89 |
| O=C(O)C[C@H](c1cccc(OC2CC3CN(Cc4cc(C(F)(F)F)ccc4C(F)(F)F)CC3C2)c1)C1CC1 (stereo partly drawn) [Example 8, (3S)-3-(3-((2-(2,5-bis(trifluoromethyl)benzyl)octahydrocyclopenta[c]pyrrol-5-yl)oxy)phenyl)-3-cyclopropylpropanoic acid] | 15 | 866 |
| CC(Oc1cccc([C@H](C2CC2)[C@H](C)C(=O)O)c1)C1CN(Cc2cc(C(F)(F)F)ccc2C(F)(F)F)C1 (stereo partly drawn) [Example 9, (2S,3R)-3-(3-(1-(1-(2,5-Bis(trifluoromethyl)benzyl)azetidin-3-yl)ethoxy)phenyl)-3-cyclopropyl-2-methylpropanoic acid] | 4 | 217 |
| O=C(O)C[C@H](c1cccc(OCC2(F)CN(Cc3cc(C(F)(F)F)ccc3C(F)(F)F)C2)c1)C1CC1 [Example 11, (S)-3-(3-((1-(2,5-Bis(trifluoromethyl)benzyl)-3-fluoroazetidin-3-yl)methoxy)phenyl)-3-cyclopropylpropanoic acid] | 22 | 967 |
| COc1ccc(F)cc1CN1CCC(Oc2cccc([C@@H](CC(=O)O)C3CC3)c2)C1 (stereo partly drawn) [Example 12, (3S)-3-Cyclopropyl-3-(3-((1-(5-fluoro-2-methoxybenzyl)pyrrolidin-3-yl)oxy)phenyl)propanoic acid] | 111 | 4660 |
| O=C(O)C[C@H](c1cccc(OCC2CCN(c3cc(C(F)(F)F)ccc3C(F)(F)F)C2)c1)C1CC1 (stereo partly drawn) [Example 13, (3S)-3-(3-((1-(2,5-Bis(trifluoromethyl)phenyl)pyrrolidin-3-yl)methoxy)phenyl)-3-cyclopropylpropanoic acid] | 129 | 1850 |
| C[C@H](C(=O)O)[C@H](c1cccc(OCC2CC(NCc3cc(C(F)(F)F)ccc3C(F)(F)F)C2)c1)C1CC1 (stereo partly drawn) [Example 14, (2S,3R)-3-(3-((3-((2,5-Bis(trifluoromethyl)benzyl)amino)cyclobutyl)methoxy)phenyl)-3-cyclopropyl-2-methylpropanoic acid] | 26 | 956 |
| O=C(O)C[C@H](c1cccc(OC2CC3(C2)CN(Cc2cc(C(F)(F)F)ccc2C(F)(F)F)C3)c1)C1CC1 [Example 15, (S)-3-(3-((2-(2,5-Bis(trifluoromethyl)benzyl)-2-azaspiro[3.3]heptan-6-yl)oxy)phenyl)-3-cyclopropylpropanoic acid] | 79 | 2080 |
| C[C@H](C(=O)O)[C@H](c1cccc(OCC2CN(c3cc(C(F)(F)F)ccn3)C2)c1)C1CC1 [Example 16, (2S,3R)-3-Cyclopropyl-2-methyl-3-(3-((1-(4-(trifluoromethyl)pyridin-2-yl)azetidin-3-yl)methoxy)phenyl)propanoic acid] | 79 | 631 |
| O=C(O)C[C@H](c1cccc(OCCC2CN(Cc3cc(C(F)(F)F)ccc3C(F)(F)F)C2)c1)C1CC1 [Example 18, (S)-3-(3-(2-(1-(2,5-Bis(trifluoromethyl)benzyl)azetidin-3-yl)ethoxy)phenyl)-3-cyclopropylpropanoic acid] | 359 | 3710 |
| COc1ccc(F)cc1CN1CC(COc2cccc([C@@H](CC(=O)O)C3CC3)c2)C1 [Example 19, (S)-3-Cyclopropyl-3-(3-((1-(5-fluoro-2-methoxybenzyl)azetidin-3-yl)methoxy)-phenyl)propanoic acid] | 497 | 4780 |
| COc1ccc(F)cc1CN1CCC(COc2cccc([C@@H](CC(=O)O)C3CC3)c2)C1 (stereo partly drawn) [Example 20, (3S)-3-Cyclopropyl-3-(3-((1-(5-fluoro-2-methoxybenzyl)pyrrolidin-3-yl)methoxy)phenyl)propanoic acid] | 266 | 10000 |
| C[C@H](C(=O)O)[C@H](c1cccc(OCC2CN(c3ncccc3C(F)(F)F)C2)c1)C1CC1 [Example 21, (2S,3R)-3-Cyclopropyl-2-methyl-3-(3-((1-(3-(trifluoromethyl)pyridin-2-yl)azetidin-3-yl)methoxy)phenyl)propanoic acid] | 13 | 297 |
| CC1(C)CN(Cc2cc(C(F)(F)F)ccc2C(F)(F)F)CC1COc1cccc([C@@H](CC(=O)O)C2CC2)c1 (stereo partly drawn) [Example 22, (3S)-3-(3-((1-(2,5-Bis(trifluoromethyl)benzyl)-4,4-dimethylpyrrolidin-3-yl)methoxy)phenyl)-3-cyclopropylpropanoic acid] | 85 | 2610 |
| O=C(O)C[C@H](c1cccc(OC2CCN(Cc3cc(C(F)(F)F)ccc3C(F)(F)F)C2)c1)C1CC1 (stereo partly drawn) [Example 23, (3S)-3-(3-((1-(2,5-Bis(trifluoromethyl)benzyl)pyrrolidin-3-yl)oxy)phenyl)-3-cyclopropylpropanoic acid] | 72 | 1040 |
| O=C(O)C[C@H](c1cccc(OC2CCCN(Cc3cc(C(F)(F)F)ccc3C(F)(F)F)C2)c1)C1CC1 (stereo partly drawn) [Example 24, (3S)-3-(3-((1-(2,5-Bis(trifluoromethyl)benzyl)piperidin-3-yl)oxy)phenyl)-3-cyclopropylpropanoic acid] | 7.4 | 524 |
| C[C@H](C(=O)O)[C@H](c1cccc(OCC2CN(Cc3cc(C(F)(F)F)ccc3C(F)(F)F)C2)c1)C1CC1 [Example 25, (2S,3R)-3-(3-((1-(2,5-Bis(trifluoromethyl)benzyl)azetidin-3-yl)methoxy)phenyl)-3-cyclopropyl-2-methylpropanoic acid] | 1.4 | 79 |
| C[C@H](C(=O)O)[C@H](c1cccc(OC[C@@H]2CCN(Cc3cc(C(F)(F)F)ccc3C(F)(F)F)C2)c1)C1CC1 [Example 26] | 1.5 | 55 |
| CC(c1cc(C(F)(F)F)ccc1C(F)(F)F)N1CC(COc2cccc([C@H](C3CC3)[C@H](C)C(=O)O)c2)C1 (stereo partly drawn) [Example 27] | 0.3 | 7.6 |
| C[C@H](C(=O)O)[C@H](c1cccc(OCC2CN(Cc3cc(C(F)(F)F)ccc3C(F)(F)F)CCO2)c1)C1CC1 (stereo partly drawn) [Example 28] | 21 | 613 |
| C[C@H](C(=O)O)[C@H](c1cccc(O[C@H]2CCCN(Cc3cc(C(F)(F)F)ccc3C(F)(F)F)C2)c1)C1CC1 [Example 29] | 51 | 711 |
| C[C@H](C(=O)O)[C@H](c1cccc(OCC2CN(c3cccc(C(F)(F)F)n3)C2)c1)C1CC1 [Example 30] | 33 | 279 |
| C[C@H](C(=O)O)[C@H](c1cccc(OCC2CCN(Cc3cc(C(F)(F)F)ccc3C(F)(F)F)CC2)c1)C1CC1 [Example 31] | 1 | 77 |
